# According to BindingDB's records for doi:10.1016/j.bmcl.2006.09.026 (Mediquest Therapeutics, 2006):
# Biological target: Transcription factor p65 (Human, UniProt Q04206)
# Experiment: Inhibition of NF-kappaB in human HEK293 cells
# Transcription factor p65, sequence (Q04206 whole entry): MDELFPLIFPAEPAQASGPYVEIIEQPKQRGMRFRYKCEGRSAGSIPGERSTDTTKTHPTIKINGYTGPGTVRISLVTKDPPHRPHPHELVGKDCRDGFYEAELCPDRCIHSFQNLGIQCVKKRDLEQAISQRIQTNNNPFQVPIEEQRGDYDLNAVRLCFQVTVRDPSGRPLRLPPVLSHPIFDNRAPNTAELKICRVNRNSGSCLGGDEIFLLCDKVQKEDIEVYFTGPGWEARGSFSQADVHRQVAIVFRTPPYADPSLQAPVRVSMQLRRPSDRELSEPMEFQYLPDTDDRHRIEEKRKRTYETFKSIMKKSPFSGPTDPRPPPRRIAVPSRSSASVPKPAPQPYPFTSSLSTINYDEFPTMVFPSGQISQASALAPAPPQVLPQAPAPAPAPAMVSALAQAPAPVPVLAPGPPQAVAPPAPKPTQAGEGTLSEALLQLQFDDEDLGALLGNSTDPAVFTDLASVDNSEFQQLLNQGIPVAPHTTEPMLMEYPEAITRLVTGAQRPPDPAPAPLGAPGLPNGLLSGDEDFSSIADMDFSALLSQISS
row,IC50,Compound
1,310 nM,CCCCCCCCCCS(=O)(=O)NCCCNCCCCNCCCN [N-(3-(4-(3-aminopropylamino)butylamino)propyl)decane-1-sulfonamide]
2,2100 nM,"CCCCCCCCCCCCCCCCCCS(=O)(=O)NCCCNCCCCNCCCN [N1-octadecanylsulfonyl-1,14-diamino-5,10-diazabutadecane]"
3,340 nM,CCCCCCCCCCCCS(=O)(=O)NCCCNCCCCNCCCN [N-(3-(4-(3-aminopropylamino)butylamino)propyl)dodecane-1-sulfonamide]
4,230 nM,CCCCCCCCCCCCCCCCS(=O)(=O)NCCCNCCCCNCCCN [N-(3-(4-(3-aminopropylamino)butylamino)propyl)hexadecane-1-sulfonamide]
